Laboratory results published in publication PMC5367011, “Sterols from Thai Marine Sponge Petrosia (Strongylophora) sp. and Their Cytotoxicity” (Marine Drugs, 2017).

What was measured:
Format in all cases: cell-based
[1] = tested on: MOLT-3 (acute lymphoblastic leukemia); experiment: Cytotoxicity, XTT assay, MOLT-3; conditions: Homo sapiens; for IC50: mean ± S.D. (n = 3), XTT assay
Experimental: (§1) In our study, several compounds (1–4, 6–8, 10, and 12–16) were evaluated for their cytotoxicity using a panel of human cancer cell lines, including MOLT-3 (acute lymphoblastic leukemia), HepG2 (hepatocarcinoma), A549 (human lung cancer), HuCCA-1 (human chlolangiocarcinoma), HeLa (cervical carcinoma), and MDA-MB-231 (hormone-independent breast cancer) as well as a normal cell line, MRC-5 (normal human embryonic lung fibroblasts).
(§2) The cytotoxic activity toward a panel of mammalian cancer cell lines (HepG2, A549, HuCCA-1, HeLa, MDA-MB-231) were tested using the 3-(4,5-dimethylthiazol-2-yl)-2,5-diphenyltetrazolium bromide (MTT) assay, while the activity toward MOLT-3 cancer cell line was performed by the 2,3-bis-(2-methoxy-4-nitro-5-sulphenyl)-(2H)-tetrazolium-5-carboxanilide (XTT) assay. Etoposide and doxorubicin were used as positive controls (Table 4).

[2] = tested on: HepG2 (hepatocarcinoma); experiment: Cytotoxicity, MTT assay, HepG2; conditions: Homo sapiens; for IC50: HepG-2, mean ± S.D. (n = 3), MTT assay
Experimental: as §1, §2

[3] = tested on: A549 (human lung cancer); experiment: Cytotoxicity, MTT assay, A549; conditions: for IC50: mean ± S.D. (n = 3), MTT assay
Experimental: as §1, §2

[4] = tested on: HuCCA-1 (human chlolangiocarcinoma); experiment: Cytotoxicity, MTT assay, HuCCA-1; conditions: for IC50: HuCC-A1, mean ± S.D. (n = 3), MTT assay
Experimental: as §1, §2

[5] = tested on: MRC-5 (normal human embryonic lung fibroblasts); experiment: Cytotoxicity toward normal cell line MRC-5; conditions: for IC50: MRC5, MRC-5 normal cell line, mean ± S.D. (n = 3)
Experimental: as §1

[6] = tested on: HeLa (cervical carcinoma); experiment: Cytotoxicity, MTT assay, HeLa; conditions: Homo sapiens, mean ± S.D. (n = 3)
Experimental: as §1, §2

[7] = tested on: MDA-MB-231 (hormone-independent breast cancer); experiment: Cytotoxicity, MTT assay, MDA-MB-231; conditions: Homo sapiens, mean ± S.D. (n = 3)
Experimental: as §1, §2

Row | Compound | IC50 [1] [µM] | IC50 [2] [µM] | IC50 [3] [µM] | IC50 [4] [µM] | IC50 [5] [µM] | further results
1 | C[C@H](CC[C@](C)(O)[C@H]1CC[C@@]2(O)[C@@H]3CC[C@H]4C[C@H](O)CC[C@]4(C)[C@H]3C[C@@H](O)[C@]12C)[C@@H]1C[C@H]1C [Compound 2, 26,27-cyclo-24,27-dimethylcholestan-3α,12β,14,20β-tetraol] | 32.4 ± 1.08 | 44.8 ± 3.79 | 38.59 ± 0.24 | 37.9 ± 3.01 | 60.6 ± 12.8 | 
2 | CC(CCC(C)(O)C1CCC2C3C(O)CC4CC(O)CCC4(C)C3CC(O)C21C)C1CC1C (stereo not drawn) [Compound 1, 26,27-cyclo-24,27-dimethylcholestan-3α,7α,12β,20β-tetraol] | 17.9 ± 0.26 | 12.7 ± 1.67 | 20 ± 1.52 | 21.3 ± 1.84 | 40.1 ± 1.23 | 
3 | COc1cccc2c1C(=O)c1c(O)c3c(c(O)c1C2=O)C[C@@](O)(C(=O)CO)C[C@@H]3O[C@H]1C[C@H](N)[C@H](O)[C@H](C)O1 [Doxorubicin, reference compound] |  | 0.55 ± 0.12 | 0.92 ± 0.06 | 2.24 ± 0.15 |  | IC50 [6]: 0.17 ± 0.1 µM; IC50 [7]: 1.78 ± 0.54 µM; inhibition at 50 µM ([5]; MRC5, MRC-5, at 50.00 μM): 24.9%
4 | COC1(OC)CC[C@@]2(C)C(CC[C@H]3C4CC[C@H]([C@]5([C@@H](O)C[C@@H](C)[C@@H]6C[C@H]6C)CO5)[C@@]4(C)[C@H](O)C[C@@H]32)C1 (stereo partly drawn) [Compound 16, aragusterolketal] | 14.6 ± 0.36 | 11.3 ± 9.29 | 29.1 ± 8.25 | 34.6 ± 3.85 | 49.6 ± 6.67 | 
5 | C[C@H](CC[C@@H](C)[C@H]1CC[C@H]2[C@@H]3C(=O)C=C4C[C@@H](O)CC[C@]4(C)[C@H]3CC[C@]12C)[C@@H]1C[C@H]1C [Compound 10, 7-oxopetrosterol] |  | 49.8 ± 3.96 | 52.1 ± 3.35 |  | 44.8 ± 1.36 | inhibition at 29.34 µM ([1]; at 29.34 μM): 2%; inhibition at 58.69 µM ([4]; HuCC-A1, at 58.69 μM): 44%
6 | CC(C)CC=CC(C)(O)C1CCC2C3C(O)CC4CC(=O)CCC4(C)C3CC(O)C21C (stereo not drawn) [Compound 12, 7α,12β,20β-trihydroxycholesta-22E-en-3-one] | 36.6 ± 1.11 | 56.5 ± 2.15 | 54.3 ± 3.84 | 66.1 ± 0.9 | 76.9 ± 10.7 | 
7 | COC1(OC)CC[C@@]2(C)[C@@H](C[C@@H](O)[C@@H]3[C@@H]2C[C@@H](O)[C@@]2(C)[C@H]3CC[C@@H]2[C@@](C)(O)CC[C@@H](C)[C@@H]2C[C@H]2C)C1 [Compound 4, 26,27-cyclo-24,27-dimethylcholestan-3,3-dimethoxy-7α,12β,20β-triol] |  |  |  |  |  | inhibition at 12.35 µM ([1]; at 12.35 μM): 0%; inhibition at 24.7 µM ([2]; HepG-2, at 24.70 μM): 20.3%; inhibition at 12.35 µM ([3]; at 12.35 μM): 2%; inhibition at 12.35 µM ([4]; HuCC-A1, at 12.35 μM): 0%; inhibition at 24.7 µM ([5]; MRC5, MRC-5, at 24.70 μM): 5.45%
8 | CC1CC1C(C)CC(O)C(O)(CO)[C@H]1CC[C@H]2[C@@H]3CC[C@H]4CC(=O)CC[C@]4(C)[C@H]3C[C@@H](O)[C@]12C (stereo partly drawn) [Compound 14, xestokerol A] | 24.4 ± 3.11 | 41.4 ± 3.24 | 23.8 ± 1.87 | 34.4 ± 1.83 | 65.9 ± 4.54 | 
9 | C[C@H](CC[C@](C)(O)[C@H]1CCC2[C@@H]3[C@H](O)C=C4C[C@@H](O)CC[C@]4(C)[C@H]3C[C@@H](O)[C@@]21C)[C@@H]1C[C@H]1C (stereo partly drawn) [Compound 3, 26,27-cyclo-24,27-dimethylcholest-5-ene-3β,7α,12β,20β-tetraol] |  | 44.6 ± 9.76 |  | 47.5 ± 6.96 |  | inhibition at 27.17 µM ([1]; at 27.17 μM): 8%; inhibition at 54.35 µM ([3]; at 54.35 μM): 9%; inhibition at 54.35 µM ([5]; MRC5, MRC-5, at 54.35 μM): 24.7%
10 | C[C@H](CC[C@](C)(O)[C@H]1CC[C@H]2[C@@H]3CC[C@H]4C[C@H](O)CC[C@]4(C)[C@H]3C[C@@H](O)[C@@]21C)[C@@H]1C[C@H]1C [Compound 6, aragusterol I] | 20.1 ± 0.52 | 54.9 ± 2.04 | 34.7 ± 17.7 | 37.06 ± 0.36 | 63.4 ± 8.3 | 
11 | COc1cc([C@@H]2c3cc4c(cc3[C@@H](O[C@@H]3O[C@@H]5CO[C@@H](C)O[C@H]5[C@H](O)[C@H]3O)[C@H]3COC(=O)[C@H]23)OCO4)cc(OC)c1O [Etoposide, reference compound] | 0.07 ± 0.005 | 31.5 ± 15.6 |  |  |  | 
12 | C[C@@H]1C[C@H]1[C@H](C)C[C@@H](O)[C@@]1([C@H]2CC[C@H]3[C@@H]4CC[C@H]5CC(=O)CC[C@]5(C)[C@H]4C[C@@H](O)[C@]23C)CO1 [Compound 15, aragusterol A] | 12.8 ± 0.98 | 7.1 ± 4.76 | 37.93 ± 0.07 | 37.6 ± 1.4 |  | IC50 [6]: 6.11 ± 0.02 µM; IC50 [7]: 18 ± 5.74 µM
13 | C[C@H](CC[C@](C)(O)[C@H]1CC[C@H]2[C@@H]3CC[C@H]4CC(=O)CC[C@]4(C)[C@H]3C[C@@H](O)[C@@]21C)[C@H]1C[C@@H]1C [Compound 7, aragusterol B] | 16.3 ± 18 | 26.5 ± 5.32 | 23.6 ± 2 | 25.1 ± 2.27 |  | IC50 [6]: 11.23 ± 0.05 µM; IC50 [7]: 27 ± 7.79 µM
14 | COC1(OC)CC[C@@]2(C)C(CC[C@H]3C4CC[C@H]([C@@](O)(CO)[C@H](O)C[C@@H](C)[C@@H]5C[C@H]5C)[C@@]4(C)[C@H](O)C[C@@H]32)C1 (stereo partly drawn) [Compound 13, 26,27-cyclo-24,27-dimethylcholestan-3,3-dimethoxy-12β,21,20α,22α-tetraol] | 14.9 ± 0.25 | 12.5 ± 0.84 | 17.9 ± 2.26 | 20.8 ± 2.32 | 37.7 ± 10.7 | 
15 | CC(CCC(C)(O)[C@H]1CC[C@H]2[C@@H]3[C@H](O)C[C@H]4CC(=O)CC[C@]4(C)[C@H]3C[C@@H](O)[C@]12C)C1CC1C (stereo partly drawn) [Compound 8, xestokerol B] |  | 18.2 ± 1.86 | 32.6 ± 3.64 | 103 ± 2.29 | 90.1 ± 6.88 | inhibition at 108.7 µM ([1]; at 108.70 μM): 43%
